Experimental data as given in patent US9758520B2, “Substituted fused heterocycles as GPR119 modulators for the treatment of diabetes, obesity, dyslipidemia and related disorders” (SANOFI, priority 2014, dated 2017).
pEC50: −log10 of the molar value.

Target: T1, human GPR119 (Homo sapiens, UniProt Q8TDV5)
T1 construct: expressed in transfected cells
T1 sequence (Q8TDV5 1-335): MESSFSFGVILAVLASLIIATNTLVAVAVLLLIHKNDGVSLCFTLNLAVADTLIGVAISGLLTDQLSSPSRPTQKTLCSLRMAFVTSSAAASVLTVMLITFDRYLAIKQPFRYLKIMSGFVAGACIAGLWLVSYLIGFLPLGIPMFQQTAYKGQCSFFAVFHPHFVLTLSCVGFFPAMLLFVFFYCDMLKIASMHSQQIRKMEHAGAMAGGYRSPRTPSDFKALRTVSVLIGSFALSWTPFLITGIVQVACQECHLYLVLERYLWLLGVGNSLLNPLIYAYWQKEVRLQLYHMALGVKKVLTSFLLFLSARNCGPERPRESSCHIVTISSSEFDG
Assay: Functional cellular assay measuring GPR119-mediated cAMP release (HTRF) in HEK-293 cells stably expressing recombinant GPR119
Type: cell-based
Conditions: cAMP response, cell line expressing human GPR119 (HEK-293), 30 minutes at room temperature
Procedure: Functional Cellular Assays Measuring GPR119-Mediated cAMP Release
Compounds of the invention, which are agonists of GPR119, were characterized by functional assays measuring the cAMP response of HEK-293 cell lines stably expressing recombinant GPR119 from man, mouse or rat, or by using a hamster cell line HIT-T15 expressing GPR119 endogenously. The cAMP content was determined using a kit based on homogenous time-resolved fluorescence (HTRF) from Cisbio Corp. (cat. no. 62AM4PEC). For preparation, cells were split into T175 culture flasks and grown to near confluency in medium (DMEM/10% FCS for HEK-293 cells, and F-12K medium/10% horse serum/2.5% FCS for HIT-T15 cells, respectively). Medium was then removed and cells washed with PBS lacking calcium and magnesium ions, followed by proteinase treatment with accutase (Sigma-Aldrich, cat. no. A6964). Detached cells were washed and resuspended in assay buffer (1×HBSS; 20 mM HEPES, 0.1% BSA, 2 mM IBMX) and cellular density determined. They were then diluted to 400000 cells/mL and 25 μL-aliquots dispensed to the wells of 96-well plates. For measurement, 25 μL of test compound in assay buffer was added and incubated for 30 minutes at room temperature. After addition of HTRF reagents diluted in lysis buffer, the plates were incubated for 1 hour, followed by measuring the fluorescence ratio at 665 vs. 620 nm. Potency of the agonists was quantified by determining the concentrations that caused 50% of the maximal response/activation (EC50). See Table 3 for exemplary data obtained using the cell line expressing human GPR119.

| SMILES | pEC50 |
| --- | --- |
| CN(C)C(=O)Cn1nc2ccc(N3CC[C@@H](Oc4ccc(OCC(F)(F)F)nc4)C3=O)cn2c1=O [Example 1-30, N,N-dimethyl-2-[3-oxo-6-[(3R)-2-oxo-3-[[6-(2,2,2-trifluoroethoxy)-3-pyridyl]oxy]pyrrolidin-1-yl]-[1,2,4]triazolo[4,3-a]pyridin-2-yl]acetamide] | 6.69 |
| O=C(Cn1nc2ccc(N3CC[C@@H](Oc4ccc(OCC5CC5)nc4)C3=O)cc2n1)NCCO [Example 2-04, 2-[5-[(3R)-3-[[6-(cyclopropylmethoxy)-3-pyridyl]oxy]-2-oxo-pyrrolidin-1-yl]benzotriazol-2-yl]-N-(2-hydroxyethyl)acetamide] | 6.46 |
| COC(=O)Cc1nc2ccc(N3CC[C@@H](Oc4ccc(OCC5CC5)nc4)C3=O)cn2n1 [Example 1-07, methyl 2-[6-[(3R)-3-[[6-(cyclopropylmethoxy)-3-pyridyl]oxy]-2-oxo-pyrrolidin-1-yl]-[1,2,4]triazolo[1,5-a]pyridin-2-yl]acetate] | 5.80 |
| CN(C)C(=O)Cn1cc2cc(N3CC[C@@H](Oc4ccc(OCC(F)(F)F)nc4)C3=O)ccc2n1 [Example 1-34, N,N-dimethyl-2-[5-[(3R)-2-oxo-3-[[6-(2,2,2-trifluoroethoxy)-3-pyridyl]oxy]pyrrolidin-1-yl]indazol-2-yl]acetamide] | 6.99 |
| O=C1[C@H](Oc2ccc(OCC3CC3)nc2)CCN1c1ccc2nccn2c1 [Example 1-03, (3R)-3-[[6-(cyclopropylmethoxy)-3-pyridyl]oxy]-1-imidazo[1,2-a]pyridin-6-yl-pyrrolidin-2-one] | 5.12 |
| O=C(O)Cc1cn2cc(N3CC[C@@H](Oc4ccc(OCC5CC5)nc4)C3=O)ccc2n1 [Example 1-19, 2-[6-[(3R)-3-[[6-(cyclopropylmethoxy)-3-pyridyl]oxy]-2-oxo-pyrrolidin-1-yl]imidazo[1,2-a]pyridin-2-yl]acetic acid] | < 4.00 |
| O=C1[C@H](Oc2ccc(Oc3ccc(F)cc3)nc2)CCN1c1cc(F)c2n[nH]c(=O)n2c1 [Example 1-10, 8-fluoro-6-[(3R)-3-[[6-(4-fluorophenoxy)-3-pyridyl]oxy]-2-oxo-pyrrolidin-1-yl]-2H-[1,2,4]triazolo[4,3-a]pyridin-3-one] | 6.18 |
| CS(=O)(=O)Cn1nc2ccc(N3CC[C@@H](Oc4ccc(OCC(F)(F)F)nc4)C3=O)cn2c1=O [Example 1-33, 2-(methylsulfonylmethyl)-6-[(3R)-2-oxo-3-[[6-(2,2,2-trifluoroethoxy)-3-pyridyl]oxy]pyrrolidin-1-yl]-[1,2,4]triazolo[4,3-a]pyridin-3-one] | 6.95 |
| CN(C)C(=O)Cn1nc2ccc(N3CC[C@@H](Oc4ccc(Oc5ccc(F)cc5)nc4)C3=O)cn2c1=O [Example 1-11, 2-[6-[(3R)-3-[[6-(4-fluorophenoxy)-3-pyridyl]oxy]-2-oxo-pyrrolidin-1-yl]-3-oxo-[1,2,4]triazolo[4,3-a]pyridin-2-yl]-N,N-dimethyl-acetamide] | 6.69 |

The remaining lines, values ahead:

| pEC50 | SMILES |
| --- | --- |
| 6.71 | NC(=O)Cn1nc2ccc(N3CC[C@@H](Oc4ccc(OCC5CC5)nc4)C3=O)cc2n1 [Example 2-05, 2-[5-[(3R)-3-[[6-(cyclopropylmethoxy)-3-pyridyl]oxy]-2-oxo-pyrrolidin-1-yl]benzotriazol-2-yl]acetamide] |
| 6.74 | CN(C)C(=O)Cn1nc2cc(N3CC[C@@H](Oc4ccc(OCC5CC5)nc4)C3=O)cc(F)c2n1 [Example 1-22, 2-[6-[(3R)-3-[[6-(cyclopropylmethoxy)-3-pyridyl]oxy]-2-oxo-pyrrolidin-1-yl]-4-fluorobenzotriazol-2-yl]-N,N-dimethyl-acetamide] |
| 7.47 | COC(=O)Cn1nc2ccc(N3CC[C@@H](Oc4ccc(OCC5CC5)nc4)C3=O)cc2n1 [Example 1-18, methyl 2-[5-[(3R)-3-[[6-(cyclopropylmethoxy)-3-pyridyl]oxy]-2-oxo-pyrrolidin-1-yl]benzotriazol-2-yl]acetate] |
| 6.75 | CN(C)C(=O)Cn1nc2c(F)cc(N3CC[C@@H](Oc4ccc(C(=O)CC5CC5)cc4)C3=O)cn2c1=O [Example 1-13, 2-[6-[(3R)-3-[4-(2-cyclopropylacetyl)phenoxy]-2-oxo-pyrrolidin-1-yl]-8-fluoro-3-oxo-[1,2,4]triazolo[4,3-a]pyridin-2-yl]-N,N-dimethyl-acetamide] |
| 6.60 | O=C1[C@H](Oc2ccc(OCC3CC3)nc2)CCN1c1cc(F)c2n[nH]c(=O)n2c1 [Example 1-25, 6-[(3R)-3-[[6-(cyclopropylmethoxy)-3-pyridyl]oxy]-2-oxo-pyrrolidin-1-yl]-8-fluoro-2H-[1,2,4]triazolo[4,3-a]pyridin-3-one] |
| 6.91 | O=C(Cn1nc2c(F)cc(N3CC[C@@H](Oc4ccc(OCC5CC5)nc4)C3=O)cn2c1=O)NC1CC1 [Example 2-02, N-cyclopropyl-2-[6-[(3R)-3-[[6-(cyclopropylmethoxy)-3-pyridyl]oxy]-2-oxo-pyrrolidin-1-yl]-8-fluoro-3-oxo-[1,2,4]triazolo[4,3-a]pyridin-2-yl]acetamide] |
